# Experimental data: patent US6727253B2, “Treatment of accidental extravasation of anthracyclines” (Antianthra APS, priority 1999, dated 2004)
# Where two headings read alike, the source gives them in different places.
# Legend:
# [1] = system: SC daunorubicin induced wounds in mice; details: for AUC / DW / FW / TTW: Table A, pooled data
# Experimental: The mice were euthanized after healing of all wounds.
# The effect of various doses of ICRF-187 was investigated in Example 3.
# Comparison of two concentrations of sc daunorubicin were compared with and without simultaneous treatment with ICRF-187 250 mg/kg.
# ICRF-187 was administered at the same time as daunorubicin, 3 hours after, and 6 hours after, respectively. Saline served as control. The dose of daunorubicin was 3 mg/kg so and ICRF-187 was administered IP in a 250 mg/kg solution. Twenty-eight mice were used. The results are depicted in data sheet #6 and the mean AUCs are shown graphically in FIG. 5.
# 100 mg/kg ICRF-187 was injected into the subcutaneous papule produced by injected daunorubicin. This treatment was compared to intralesional saline control, IP saline control, and IP treatment with ICRF-187.
# […]. Seven experiments (n=6, 7, 7, 9, 9, 9, and 9) with 3 mg/kg daunorubicin SC plus saline IP at t=0 and seven experiments (n=6, 7, 7, 9, 9, 8, and 9) with 3 mg/kg daunorubicin SC plus 250 mg/kg ICRF-187 IP at t=0tin two experiments (n=9 and 4) the ICRF-187 doses were 62,5 mg/kg and 375 mg/kg IP, respectively, in two (n=7 and 9) the dose was 125 mg/kg. ICRF-187 250 mg/kg was administered IV in one (n=9).
# [2] = system: wound after daunorubicin SC in swine; test: Pilot study on swine, daunorubicin SC; assay type: in vivo; details: 1 ml daunorubicin SC, untreated
# Experimental: (§1) A danish porker weighting approximately 30 kg was used. The animals were fully anesthesized and artificially ventilated during SC injection of 1 ml of anthracycline.
# [3] = system: wound after doxorubicin SC in swine; test: Pilot study on swine, doxorubicin SC; assay type: in vivo; details: 3 mg doxorubicin SC, not receiving ICRF-187
# Experimental: as §1
# [4] = Example 3, daunorubicin 3 mg/kg sc + saline IP
# [5] = Example 4, daunorubicin 1 mg/kg sc + saline IP
# [6] = Example 4, daunorubicin 3 mg/kg sc + saline IP
# [7] = Example 5, daunorubicin 1 mg/kg sc + saline IP
# [8] = Example 5, daunorubicin 3 mg/kg sc + saline IP
# [9] = Example 6, daunorubicin 3 mg/kg sc + saline IP
# [10] = Example 7, daunorubicin 3 mg/kg sc + 0.05 ml saline IL
# [11] = Example 7, daunorubicin 3 mg/kg sc + saline IP
# [12] = daunorubicin 1 mg/kg SC + saline IP
# [13] = daunorubicin 3 mg/kg SC + saline IP
# [14] = daunorubicin 3 mg/kg SC + saline IP, listed as daunorubicin
smiles,measurement,setting,value
COc1cccc2c1C(=O)c1c(O)c3c(c(O)c1C2=O)C[C@@](O)(C(C)=O)C[C@@H]3O[C@H]1C[C@H](N)[C@H](O)[C@H](C)O1 [Daunorubicin],Mean AUC,[1]; [4],764 mm^2 × days
same,Mean DWw ± SEM,[1]; [4],29.8 ± 0.5 days
same,Mean TTWw ± SEM,[1]; [4],4.8 ± 0.4 days
same,Mean AUC,[1]; [5],365 mm^2 × days
same,Mean DWw ± SEM,[1]; [5],25.5 ± 1.1 days
same,Mean TTWw ± SEM,[1]; [5],7.3 ± 1.6 days
same,Mean AUC,[1]; [6],1240 mm^2 × days
same,Mean DWw ± SEM,[1]; [6],29.0 ± 0.9 days
same,Mean TTWw ± SEM,[1]; [6],4.8 ± 0.3 days
same,Mean AUC,[1]; [7],184 mm^2 × days
same,Mean DWw ± SEM,[1]; [7],20.5 ± 1.3 days
same,Mean TTWw ± SEM,[1]; [7],8.5 ± 0.7 days
same,Mean AUC,[1]; [8],955 mm^2 × days
same,Mean DWw ± SEM,[1]; [8],25.7 ± 0.7 days
same,Mean TTWw ± SEM,[1]; [8],5.1 ± 0.2 days
same,Mean AUC,[1]; [9],1398 mm^2 × days
same,Mean DWw ± SEM,[1]; [9],27.4 ± 0.5 days
same,Mean TTWw ± SEM,[1]; [9],5.0 ± 0.4 days
same,Mean AUC,[1]; [10],1290 mm^2 × days
same,Mean DWw ± SEM,[1]; [10],24.4 ± 0.6 days
same,Mean TTWw ± SEM,[1]; [10],6.2 ± 0.3 days
same,Mean AUC,[1]; [11],1144 mm^2 × days
same,Mean DWw ± SEM,[1]; [11],26.9 ± 0.7 days
same,Mean TTWw ± SEM,[1]; [11],6.0 ± 0.3 days
same,AUC,[1]; [12],263 (± 56) mm^2×days
same,DW,[1]; [12],22.6 (± 1.1) days
same,FW,[1]; [12],88%
same,TTW,[1]; [12],6.9 (± 0.7) days
same,AUC,[1]; [13],1260 (± 72) mm^2×days
same,DW,[1]; [13],26.6 (± 0.3) days
same,FW,[1]; [13],96%
same,TTW,[1]; [13],5.5 (± 0.2) days
same,DW,[1]; [14],26.6 days
same,TTW,[1]; [14],5.5 days
same,wound appearance,[2],a large wound appeared
COc1cccc2c1C(=O)c1c(O)c3c(c(O)c1C2=O)C[C@@](O)(C(=O)CO)C[C@@H]3O[C@H]1C[C@H](N)[C@H](O)[C@H](C)O1 [Doxorubicin],wound appearance,[3],a wound appeared
